We go through ten compounds from US9051309B2, “3,5-disubstituted-1,3,4-oxadiazol-2(3H)-ones and compositions and methods for controlling nematode pests” (Monsanto Technology LLC, priority 2013, dated 2015).

Marks after values point to notes of the source that are not given here.

The subject of assay [1] is soybean cyst nematode (SCN). Put plainly: SCN greenhouse sand assay on soybean plants. The assay is classed as in vivo. Conditions: SCN eggs about four hours after application, rated 28 days after egg inoculation. How it is done: (§1) First, a concentrate was prepared by dissolving 2 milligrams of the test compound in 2 mL of an acetone solvent. Test solutions were then prepared by combining an appropriate amount of the concentrate with an aqueous surfactant solution comprising TRITON X100 (0.05%).
A similar experiment was conducted with regard to control of soybean cyst nematode (SCN) on soybean plants. Soybean seeds were planted in a media consisting of 80% sand and 20% silt loam soil (v/v) in two inch square plastic pots. […] Approximately four hours after application of the nematicidal test solution, the nematode soybean cyst nematode (SCN) eggs were applied using the procedure described above. The soybean plants were rated for root galling 28 days after the egg inoculation.

Assay [2] deals with Meloidogyne incognita nematodes. Put plainly: Miniaturized greenhouse nematicidal efficacy assay on cucumber seedlings in sand vials (root gall rating). The conditions noted are these: 500 M. incognita eggs, harvest 10 to 12 days after inoculation, average of triplicate ratings.
Protocol: A miniaturized greenhouse assay was conducted to study the effects of several 3,5-disubstituted-1,3,4-oxadiazol-2(3H)-one compounds on Meloidogyne incognita nematodes.
Cucumber seeds were sprouted for 3 days in moist paper towels. Acceptable sprouts were 3 to 4 cm long, with several lateral roots just emerging.
Each test solution was evaluated in triplicate. Dry sand (10 mL) was added to each vial. Seedlings were planted by tilting the vial and laying the seedling in the correct orientation so that the cotyledons were just above the sand, and then tilting back to cover the radicles with sand. A sample of the test solution (3.3 mL) was then added to each vial, and the vials were placed in racks under fluorescent light banks. The vials were inoculated two days after planting by adding 500 vermiform M. incognita eggs to each vial in deionized or spring water (50 μL). The vials were then kept under the fluorescent lamps at ambient room temperature and watered as needed with deionized water (1 mL), usually twice during duration of test.
Harvest of the cucumber plants was performed 10 to 12 days after inoculation by washing sand off the roots. A root gall rating was assigned using the following Gall rating scale (Gall: % root mass galled): 0=0-5%; 1=6-20%; 2=21-50%; and 3=51-100%.
Comparative solutions comprising other commercially available nematicidal compounds were also evaluated as controls.
Assay [3] relates to root knot nematode (RKN). As to the kind of experiment: RKN greenhouse soil assay on cucumber plants (7 day longevity test). It is filed as in vivo. Conditions: inoculated 7 days after application, root galling rated 14 days after egg inoculation, galling reduction relative to control blank. The procedure: as §1
Cucumber seeds were planted in a sandy soil mixture in two inch square plastic pots. When the cotyledons were fully opened and just as the first leaf began to emerge, usually 7 days after planting, a nematicidal test solution was applied to each pot. Five milliliters of the appropriate chemical solution was pipetted to the media surface, making sure to avoid contact with the base of the plant. Immediately following chemical application, using a mist nozzle, the pot surface was wetted sufficiently to saturate the pot, effectively watering the test solution into the soil.
Seven days following application of the test solution, each pot was inoculated with root knot nematode (RKN) eggs. A nematode egg slurry was prepared by adding RKN nematode eggs to distilled water to create a concentration of 1000 vermiform eggs […] of water. […]
The cucumber plants were rated for root galling 14 days after the egg inoculation. […] A commercially available nematicide, fenamiphos, was also evaluated for comparison.

The subject of assay [4] is root knot nematode (RKN). Put plainly: Seed treatment on cucumber for RKN control. It is filed as in vivo. The conditions noted are these: 1000 root knot eggs five days after planting, galling rated 14 days after inoculation, versus untreated blank. How it is done:
The excess of 30% by weight of test compound was added for each treatment that would equal 130% of the desired rate to assure target seed loading. The test compound (the amount as described in Table 3A below) and surfactant (optional) were dissolved in 3 mL acetone. AGRIMER VA-6 inert polymer was added at a concentration of 15% of the total test compound weight. Seeds were placed in the drum of the batch lab treater. The drum was rotated. The solutions of test compositions as described above were pipette onto seeds. The drum continued to rotate until the seed were dry.
3 inch by 3 inch plastic pots were filled with a media consisting of 80% sand and 20% silt loam soil (v/v). Treated cucumber seeds were planted ½ inch below the soil surface. Pots were watered as needed. Five days after planting the cucumber plants had the first true leaf emerging and each pot was inoculated with 1000 vermiform root knot eggs. The cucumber plants were rated for root galling 14 days after inoculation. The gall ratings were scored on a scale of 0-100 where, 0=no galls and 100=completely galled. Percent control was determined by comparison to the blank (untreated).

[5] abbreviates: 40 ppm, scale 0=0-5%, 1=6-20%, 2=21-50%, 3=51-100% root mass galled.

As for `CNC(=O)O/N=C(\SC)C(=O)N(C)C` [Oxamyl, reference compound], the “Percent Control” value in assay [1] (application rate 0.1 kg/ha) is 59^a Percent; in assay [1] (application rate 0.25 kg/ha), 79^a Percent.

For the compound `O=c1oc(-c2ccc(Cl)cc2)nn1-c1cccs1` [Formula IIa-iv, 5-(4-chlorophenyl)-3-(thiophen-2-yl)-1,3,4-oxadiazol-2(3H)-one], the gall ratings in assay [2] (1 ppm, scale 0-3) is 3.00; in assay [2] (8 ppm, scale 0-3), 1.67; in assay [2] (setting [5]), 1.00.

Take `O=c1oc(-n2cccc2)nn1-c1ccccc1` [Formula Ic-i, 3-phenyl-5-(1H-pyrrol-1-yl)-1,3,4-oxadiazol-2(3H)-one]: the gall ratings in assay [2] (8 ppm, scale 0-3) is listed as 0.33; in assay [2] (setting [5]), 0.00.

Consider `O=c1oc(-n2cccc2)nn1-c1ccc(Cl)cc1` [Formula Ic-ii, 3-(4-chlorophenyl)-5-(1H-pyrrol-1-yl)-1,3,4-oxadiazol-2(3H)-one], for which the gall ratings in assay [2] (1 ppm, scale 0-3) is 2.33; in assay [2] (8 ppm, scale 0-3), 1.67; in assay [2] (setting [5]) it was 1.00.

Take `O=c1oc(-c2cccs2)nn1-c1ccc(F)cc1` [Formula Ia-iv, 3-(4-fluorophenyl)-5-(thiophen-2-yl)-1,3,4-oxadiazol-2(3H)-one]: the gall ratings in assay [2] (1 ppm, scale 0-3) is listed as 3.00; in assay [2] (8 ppm, scale 0-3) it was 2.00; in assay [2] (setting [5]), 1.33.

As for `O=c1oc(-c2cccs2)nn1-c1ccc(Cl)cc1` [Formula Ia-iii, 3-(4-chlorophenyl)-5-(thiophen-2-yl)-1,3,4-oxadiazol-2(3H)-one], the “Percent Control” value was 63^a Percent in the assay with root knot nematode (RKN) [3] (application rate 0.1 kg/ha); 70^a Percent with root knot nematode (RKN) [3] (application rate 0.25 kg/ha); 12^b Percent in the assay on root knot nematode (RKN) [4] (seed treatment 0.1 mg a.i./seed); 25^b Percent with root knot nematode (RKN) [4] (seed treatment 0.25 mg a.i./seed); 62^a Percent with root knot nematode (RKN) [4] (seed treatment 0.5 mg a.i./seed); 29^a Percent in assay [1] (application rate 0.1 kg/ha). Also, the “Percent Control” value in assay [1] (application rate 0.25 kg/ha) is 56^a Percent. For the same compound, the gall ratings in assay [2] (1 ppm, scale 0-3) is on record as 0.00; in assay [2] (8 ppm, scale 0-3) it was 0.33; in assay [2] (setting [5]), 0.00.

For `O=c1oc(-c2cccs2)nn1-c1ccccc1` [Formula Ia-i, 3-phenyl-5-(thiophen-2-yl)-1,3,4-oxadiazol-2(3H)-one], the gall ratings in assay [2] (8 ppm, scale 0-3) was determined as 2.00; in assay [2] (setting [5]), 1.00.

Turning to `O=c1oc(-c2ccco2)nn1-c1ccc(Cl)cc1` [Formula Ia-v, 3-(4-chlorophenyl)-5-(furan-2-yl)-1,3,4-oxadiazol-2(3H)-one], the gall ratings in assay [2] (1 ppm, scale 0-3) is recorded as 1.67; in assay [2] (8 ppm, scale 0-3), 1.00; in assay [2] (setting [5]) it was 0.33.

In the case of Abamectin [reference compound], the gall ratings in assay [2] (1 ppm, scale 0-3) is recorded as 1.67^b. The “Percent Control” value in the assay with root knot nematode (RKN) [4] (seed treatment 0.2 mg a.i./seed) is listed as 37^a Percent.

Turning to `O=c1oc(-c2ccco2)nn1-c1ccccc1` [Formula Ia-ii, 5-(furan-2-yl)-3-phenyl-1,3,4-oxadiazol-2(3H)-one], the gall ratings was 3.00 in assay [2] (1 ppm, scale 0-3); 1.33 in assay [2] (8 ppm, scale 0-3); 0.00 in assay [2] (setting [5]).
